Experimental data published in patent US6262073A, “Pharmaceutical methods of use of 5-substituted and 5,5 disubstituted-3,4-dihydroxy-2(5H)-furanones” (Oxis International Inc., priority 2000, dated 2001).

Key:
[1] = tested on: Nuclear Factor-kappa B (NF-κB); assay: NF-κB lacZ (κB-Z) reporter assay in transfected Jurkat cells stimulated with A23187 and PMA; type: cell-based, human; settings: for inhibition at 10 µM: Homo sapiens, read-out: NF-κB percent inhibition
Method: The human T lymphoid cell line Jurkat was transfected with a response element lacZ reporter in which transcription of the β-galactosidase gene is directed by the binding site for the NF-κB transcription factor. […] At the end of the incubation, the cells are spun down and resuspended in the buffer and FDG (fluorescein di-β-D-galactopyranoside) solution. The covered plates are further incubated in the dark for 16 hours at 25° C. […] Compounds were screened at 10 μM.

[2] = tested on: Lipid peroxidation (rat liver microsomes); assay: Lipid peroxidation screen (LPO), CCl4-induced, liver microsomes; type: biochemical; settings: 300 μM
Method: (§1) The compounds of the invention were screened for their anti-inflammatory activity using a series of in vitro tests the details of which are given below. The activity of various compounds against 5-lipoxygenase, cycloxygenase-1, cycloxygenase-2 and lipid peroxidase was evaluated. Results of the screening procedures are included in TABLE I, and the activity against 5-lipoxygenase at a test concentration of 1 μM in Table II.
Lipid peroxidation is a consequence of various stimuli, including reactive free radicals. Polyunsaturated fatty acids associated with plasma membranes are degraded due to enzymatic induction by reactive agents such as CCl4, leading to cellular damage. Briefly, microsomes are prepared from rat livers and the protein concentration is determined according to the method of D. Mansuy et al., Biochem. Biophys. Res. Comm. 135:1015-1021(1986). A reaction mixture consisting of 2 mg of the microsomal preparation, an NADPH generating system, 20 mM CCl4 and test compound are incubated for 12 minutes at 37° C. The reaction is terminated by the addition of a mixture of thiobarbituric acid and trichloroacetic acid. The absorbance is read at 535 nm and is proportional to the concentration of malondialdehyde. Compounds are screened at 300 μM.

[3] = molecular target: T1, 5-Lipoxygenase (crude enzyme preparation from rat basophilic leukemia cells, RBL-1) (Rattus norvegicus, UniProt P12527); assay: 5-Lipoxygenase screen (5-LO), 5-HETE by RIA; type: biochemical; settings: for inhibition at 30 µM: read-out: 5-LO percent inhibition; for inhibition at 1 µM: read-out: Percent inhibition of 5-LO
T1 construct: crude enzyme preparation from rat basophilic leukemia cells (RBL-1); endogenous in cells; host or cells: rat basophilic leukemia cells (RBL-1)
T1 sequence (P12527 1-673): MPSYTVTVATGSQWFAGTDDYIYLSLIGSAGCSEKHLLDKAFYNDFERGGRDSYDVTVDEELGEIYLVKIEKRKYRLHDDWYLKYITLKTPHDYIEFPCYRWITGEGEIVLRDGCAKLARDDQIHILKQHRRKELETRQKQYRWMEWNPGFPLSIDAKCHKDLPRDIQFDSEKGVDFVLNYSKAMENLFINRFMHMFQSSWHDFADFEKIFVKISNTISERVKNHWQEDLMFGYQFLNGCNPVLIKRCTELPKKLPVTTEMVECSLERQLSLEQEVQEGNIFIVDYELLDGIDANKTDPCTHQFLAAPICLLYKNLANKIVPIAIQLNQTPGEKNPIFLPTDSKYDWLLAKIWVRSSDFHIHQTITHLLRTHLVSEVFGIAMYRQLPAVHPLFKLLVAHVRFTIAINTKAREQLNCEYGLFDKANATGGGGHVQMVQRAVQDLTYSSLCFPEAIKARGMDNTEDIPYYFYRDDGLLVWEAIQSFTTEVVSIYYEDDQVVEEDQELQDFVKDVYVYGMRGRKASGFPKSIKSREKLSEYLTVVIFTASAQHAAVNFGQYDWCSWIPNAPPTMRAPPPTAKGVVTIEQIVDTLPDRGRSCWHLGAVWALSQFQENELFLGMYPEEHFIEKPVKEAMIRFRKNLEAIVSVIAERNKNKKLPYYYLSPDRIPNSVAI
Method: as §1
5-Lipoxygenase catalyzes the oxidative metabolism of arachidonic acid to […] (5-HETE), the initial reaction leading to the formation of the leukotrienes. Briefly, the testing procedure utilizes a crude enzyme preparation from rat basophilic leukemia cells (RBL-1) according to the methods of T. Shimuzu et al. Pro. […] Test compounds are pre-incubated with the enzyme preparation for 5 minutes at room temperature and the reaction is initiated by the addition of arachidonic acid. Following an 8 minute incubation at room temperature, the reaction is terminated by the addition of citric acid and concentrations of 5-HETE are determined by RIA. Compounds are screened at 30 μM.

[4] = molecular target: T2, Cyclooxygenase-2 (prostaglandin H synthetase-2) from sheep placenta (Ovis aries, UniProt P79208); assay: Cyclooxygenase-2 screen (COX-2); type: biochemical; settings: read-out: COX-2 percent inhibition
T2 construct: cyclooxygenase-2 from sheep placenta; from tissue; host or cells: sheep placenta
T2 sequence (P79208 17-603): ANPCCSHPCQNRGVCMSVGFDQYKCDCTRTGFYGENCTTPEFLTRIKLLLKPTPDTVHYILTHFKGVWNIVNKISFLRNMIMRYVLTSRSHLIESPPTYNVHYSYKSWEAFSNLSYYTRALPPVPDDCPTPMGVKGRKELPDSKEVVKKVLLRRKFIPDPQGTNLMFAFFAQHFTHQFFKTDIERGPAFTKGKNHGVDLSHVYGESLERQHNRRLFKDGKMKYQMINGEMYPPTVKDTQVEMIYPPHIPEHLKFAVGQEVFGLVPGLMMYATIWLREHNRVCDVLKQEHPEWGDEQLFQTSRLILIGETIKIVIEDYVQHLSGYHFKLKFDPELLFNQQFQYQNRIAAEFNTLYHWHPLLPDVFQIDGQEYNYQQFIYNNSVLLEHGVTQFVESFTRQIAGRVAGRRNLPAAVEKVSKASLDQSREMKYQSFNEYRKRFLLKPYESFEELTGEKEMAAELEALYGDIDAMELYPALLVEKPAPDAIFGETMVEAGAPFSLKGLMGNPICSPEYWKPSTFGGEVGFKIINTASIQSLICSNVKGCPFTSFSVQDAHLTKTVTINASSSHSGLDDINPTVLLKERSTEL
Method: as §1
Cyclooxygenase-2, also known as prostaglandin H synthetase-2, catalyzes the rate- limiting step in the synthesis of inflammatory prostaglandins. In this reaction cyclooxygenase-2 catalyzes the oxygenation of unesterified precursors to form cyclic endoperoxide derivatives, including prostaglandin H. Briefly, cyclooxygenase-2 from sheep placenta, 14 μg/assay tube, is incubated with arachidonic acid (500 μM) for 1.5 minutes at 27° C. in the absence or presence of test compounds according to the methods of A. T. Evans, et al., Biochem Pharm. […] Res. Comm. […] Compounds are screened at 300 μM.

[5] = molecular target: T3, Cyclooxygenase-1 (cyclooxygenase from ram seminal vesicles) (Ovis aries, UniProt P05979); assay: Cyclooxygenase-1 screen (COX-1); type: biochemical; settings: 300 μM
T3 construct: cyclooxygenase from ram seminal vesicles; from tissue; host or cells: ram seminal vesicles
T3 sequence (P05979 25-600): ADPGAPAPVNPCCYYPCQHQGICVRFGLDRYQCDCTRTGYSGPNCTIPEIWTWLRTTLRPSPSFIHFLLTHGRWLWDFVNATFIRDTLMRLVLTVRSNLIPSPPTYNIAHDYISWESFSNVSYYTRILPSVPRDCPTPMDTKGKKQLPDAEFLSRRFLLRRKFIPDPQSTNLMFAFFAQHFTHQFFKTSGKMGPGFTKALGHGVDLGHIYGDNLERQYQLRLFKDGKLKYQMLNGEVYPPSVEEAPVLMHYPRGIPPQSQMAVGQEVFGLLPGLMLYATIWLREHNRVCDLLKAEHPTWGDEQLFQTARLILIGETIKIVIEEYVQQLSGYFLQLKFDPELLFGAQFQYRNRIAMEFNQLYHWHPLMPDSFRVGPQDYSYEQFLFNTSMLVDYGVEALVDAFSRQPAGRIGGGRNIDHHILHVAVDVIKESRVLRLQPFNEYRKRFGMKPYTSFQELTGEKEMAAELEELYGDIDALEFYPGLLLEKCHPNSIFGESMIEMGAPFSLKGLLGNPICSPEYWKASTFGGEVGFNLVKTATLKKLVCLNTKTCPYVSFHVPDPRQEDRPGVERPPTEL
Method: as §1
Cyclooxygenase-1 is involved in the formation of prostaglandins and thromboxane via the oxidative metabolism of arachidonic acid. Briefly, cyclooxygenase from ram seminal vesicles is incubated with arachidonic acid (100 μm) for 2 minutes at 37° C. in the presence or absence of test compounds according to the methods of A. T. Evans et al., Biochem. Pharm. 36:2035-2037(1987) and R. Boopathy et al., Biochem J. 239:371-377 (1968). The assay is terminated by the addition of trichioroacetic acid and cyclooxygenase activity is determined by reading the absorbance at 530 nm. […]

[6] = 10 μM, κB-Z Jurkat cells, A23187 and PMA (Table III)

IC50 ([1]; Table III) | 5-LO percent inhibition ([3]; Table I cell printed "@1" instead of the 30 μM of the head) | IC50 ([3]; Table II) | Percent inhibition of 5-LO ([3]; test conc. 1 μM (Table II)) | SMILES | inhibition at 10 µM [1, 6] | LPO percent inhibition [2] | inhibition at 30 µM [3] | inhibition at 1 µM ([3]; test conc. 1 μM (Table II)) | inhibition at 300 µM [4] | COX-1 percent inhibition [5] | NF-κB percent inhibition [1, 6]
 |  |  |  | C[C@@]1(c2ccc(-c3ccccc3)cc2)OC(=O)C(O)=C1O [Example 11, (S)-(+)-5-[(1,1'-Biphenyl)-4-yl]-3,4-dihydroxy-5-methyl-2(5H)-furanone] | 72% | 71% | 101% | 59% | 10% | 34% | 
 |  |  |  | O=C1OC(c2ccccc2)(c2ccccc2)C(O)=C1O [Example 8, 3,4-Dihydroxy-5,5-diphenyl-2(5H)-furanone] | 33% | 70% | 94% | 15% | 17% | 15% | 
 |  |  |  | CC(C)Cc1ccc(C2(c3ccccc3)OC(=O)C(O)=C2O)cc1 (centres unmarked) [Example 10, 3,4-Dihydroxy-5-(4-isobutylphenyl)-5-phenyl-2(5H)-furanone] | 16% | 89% | 106% | 64% | 34% | 43% | 
 |  |  |  | O=C1OC(c2ccccc2)(c2ccc(-c3ccccc3)cc2)C(O)=C1O (centres unmarked) [Example 7, 5-[(1,1'-Biphenyl)-4-yl]-3,4-dihydroxy-5-phenyl-2(5H)-furanone] | 21% | 73% | 102% | 61% | 34% | 52% | 
 |  |  |  | O=C1OC(CCOc2ccc3oc4ccccc4c3c2)C(O)=C1O (centres unmarked) [Example 17, 5-[2-(Dibenzofuran-2-oxy)ethyl]-3,4-dihydroxy-2(5H)-furanone] |  | 74% | 99% | 60% | 21% | 17% | 
 |  |  |  | O=C1OC(CCOc2cccc3ccccc23)C(O)=C1O (centres unmarked) [Example 18, 3,4-Dihydroxy-5-[2-(1-naphthoxy)ethyl]-2(5H)-furanone] |  | 71% | 99% | 49% | -12% | 11% | 
6 µM | 85% | 0.16 µM | 91% | O=C1OC(CCC#Cc2cc(Cc3ccc(F)cc3)cs2)C(O)=C1O (centres unmarked) [Example 36, 3,4-Dihydroxy-5-[2-(4-(4-fluorophenylmethyl)thiophene)-(3-butynyl)]-2(5H)-furanone] |  |  |  |  |  |  | 61%
 |  |  |  | CCC/C=C\Cc1ccccc1/C=C\CCC1OC(=O)C(O)=C1O (centres unmarked) [Example 40] |  | 65% | 99% |  | 25% | 38% | 
 |  |  |  | O=C1OC(CCC#Cc2ccccc2)C(O)=C1O (centres unmarked) [Example 27, 3,4-Dihydroxy-5-[(4-phenyl)-3-butynyl]-2(5H)-furanone] |  | 59% | 42% |  | 20% | 5% | 
 |  |  |  | CC1(c2ccc(Cl)cc2)OC(=O)C(O)=C1O (centres unmarked) [Example 4, 5-(4-Chlorophenyl)-3,4-dihydroxy-5-methyl-2(5H)-furanone] |  | 54% | 2% |  | 24% | 2% | 
 |  |  |  | CC(C)Cc1ccc(C2(C)OC(=O)C(O)=C2O)cc1 (centres unmarked) [Example 3, 3,4-Dihydroxy-5-methyl-5-[4-(2-methylpropyl)phenyl]-2(5H)-furanone] |  | 78% | 99% |  | -4% | 2% | 
 |  |  |  | O=C1OC(CCOc2ccc(Oc3ccccc3)cc2)C(O)=C1O (centres unmarked) [Example 15, 3,4-Dihydroxy-5-[2-(4-phenoxy)phenoxyethyl]-2(5H)-furanone] |  | -5% | 100% | 52% | -4% | 9% | 
 |  |  |  | O=C1OC(CCOc2ccc3oc(-c4ccccc4)cc(=O)c3c2)C(O)=C1O (centres unmarked) [Example 16, 3,4-Dihydroxy-5-[2-(flavone-6-oxy)ethyl]-2(5H)-furanone] |  | 76% | 100% | 54% | 2% | 17% | 
